# In US11696914B1 (priority 2019, dated 2023):
# Assays:
# [1] = test system: Ebola virus/H.sapiens-tc/COD/1976/Yambuku-Mayinga (EBOV/May); test: microbe, parasite or virus in culture; type: cell-based; conditions: Zaire ebolavirus, HeLa
# [2] = test system: Marburg virus (MARV), Musoke strain; test: organism not typed; type: cell-based; conditions: HeLa; n=6; read-out: IC50 ± SEM versus MARV Musoke strain
# Ebola virus = test: microbe, parasite or virus in culture; type: cell-based; conditions: Zaire ebolavirus, Vero 76
# [3] = test system: Marburg virus/H.sapiens-tc/KEN/1980/Mt. Elgon-Musoke (MARV/Mus); test: organism not typed; type: cell-based; conditions: HeLa
# [4] = guinea pig, microsomes
# West Nile virus = test: microbe, parasite or virus in culture; type: cell-based; conditions: Vero 76
# [5] = human, microsomes, 1 h, pH 7.4
# [6] = guinea pig, pH 7.4
smiles,measurement,setting,value
"COc1ccc2nc3cc(Cl)ccc3c(Nc3cc(CN4CCCC4)c(O)c(CN4CCCC4)c3)c2n1 [Pyronaridine, 4-[(7-Chloro-2-methoxybenzo[b][1,5]naph-thyridin-10-yl)amino]-2,6-bis(1-pyrrolidinylmethyl)phenol phosphate (1:4)]",IC50,[1],1010 ± 580 nM
same,IC50,[2],1080 ± 197 nM
same,EC50,Ebola virus,> 1300 nM
same,IC50,[3],1010 ± 110 nM
same,Clint,[4],21.0
same,"Dextromethorphan: compound, t1/2 normalized to dextromethorphan control",[4],23.4
same,t1/2,[4],1.1 h
same,EC50,West Nile virus,> 24000 nM
same,Relative Peak Area/Abundance HLM,[5],85.9%
same,Relative Peak Area/Abundance GPLM,[6],75.9%
